According to patent US20230265116A1, “DEGRADATION OF (EGFR) BY CONJUGATION OF EGFR INHIBITORS WITH E3 LIGASE LIGAND AND METHODS OF USE” (BEIGENE, LTD., priority 2020, published 2023):

Key:
[1] = target: T1, EGFR L858R/T790M/C797S (BaF3-LTC cells) (Homo sapiens, UniProt P00533, C797S/L858R/T790M); test: EGFR degradation HTRF assay, BaF3-LTC cells; assay type: cell-based; settings: BaF3-LTC cells; for DC50: EGFR degradation, IC50 (DC50) from curve fit, read-out: DC50(nM) BaF3-LTC; for Dmax / Dmax (%) BaF3-LTC: maximum percentage of inhibition (degradation); for Dmax: read-out: Dmax (%) BaF3-LTC
T1 construct: expressed in transfected cells; host or cells: BaF3
T1 sequence (P00533 25-1210 T790M/C797S/L858R): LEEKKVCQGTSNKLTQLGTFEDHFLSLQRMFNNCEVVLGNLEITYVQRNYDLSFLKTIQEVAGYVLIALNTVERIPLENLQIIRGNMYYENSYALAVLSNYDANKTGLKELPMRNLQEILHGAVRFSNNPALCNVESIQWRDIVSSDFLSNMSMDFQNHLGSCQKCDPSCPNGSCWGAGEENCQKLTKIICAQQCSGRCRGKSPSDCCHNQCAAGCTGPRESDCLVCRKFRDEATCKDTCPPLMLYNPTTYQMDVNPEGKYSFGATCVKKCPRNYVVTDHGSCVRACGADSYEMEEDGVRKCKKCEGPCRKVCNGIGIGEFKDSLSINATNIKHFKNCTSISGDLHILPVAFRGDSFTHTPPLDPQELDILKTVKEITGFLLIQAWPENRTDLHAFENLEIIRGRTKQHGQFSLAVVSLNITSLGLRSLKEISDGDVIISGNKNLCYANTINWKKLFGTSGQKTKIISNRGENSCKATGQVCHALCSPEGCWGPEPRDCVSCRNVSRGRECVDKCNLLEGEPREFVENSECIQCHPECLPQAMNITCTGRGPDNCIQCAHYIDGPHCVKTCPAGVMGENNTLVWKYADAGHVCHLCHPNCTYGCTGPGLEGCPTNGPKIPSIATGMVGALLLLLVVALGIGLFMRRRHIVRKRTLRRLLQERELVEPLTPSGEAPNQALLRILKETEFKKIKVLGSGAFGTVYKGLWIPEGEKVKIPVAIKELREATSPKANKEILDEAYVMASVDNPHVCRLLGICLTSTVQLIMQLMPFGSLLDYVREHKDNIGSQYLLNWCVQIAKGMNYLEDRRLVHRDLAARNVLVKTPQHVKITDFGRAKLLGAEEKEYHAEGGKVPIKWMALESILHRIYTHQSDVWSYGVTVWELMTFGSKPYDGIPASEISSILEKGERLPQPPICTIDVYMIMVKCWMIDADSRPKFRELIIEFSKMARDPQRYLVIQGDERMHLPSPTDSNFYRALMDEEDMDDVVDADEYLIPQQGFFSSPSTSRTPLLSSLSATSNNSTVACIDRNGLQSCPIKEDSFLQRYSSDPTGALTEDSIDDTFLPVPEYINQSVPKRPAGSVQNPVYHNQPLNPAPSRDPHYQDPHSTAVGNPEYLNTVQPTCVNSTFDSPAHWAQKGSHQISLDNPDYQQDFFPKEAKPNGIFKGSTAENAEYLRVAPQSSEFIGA
Procedure, shortened: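 EGFR remaining after a 16 h, 37 °C exposure (8 doses, 5-fold steps from 10 uM final, 0.2% DMSO) was quantified by HTRF antibodies in cell lysate. Percent inhibition relative to DMSO control was fitted by four-parameter logistic to give DC50; Dmax denotes maximal degradation.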

[2] = tested on: EGFR Del19/T790M/C797S (H1975-clone #28); test: EGFR degradation HTRF assay, H1975-clone #28 DTC cells; assay type: cell-based; settings: H1975 # 28 DTC cells; for DC50: EGFR degradation, IC50 (DC50) from curve fit, read-out: DC50(nM) H1975 # 28 DTC; for Dmax (%) H1975 # 28 DTC: maximum percentage of inhibition (degradation)
Procedure, shortened: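 Read-out is an HTRF EGFR signal (337 nm excitation, 665/620 nm) from lysates of mutant-EGFR H1975 clones in which only the exogenous EGFR survives knockout. Treatment ran 16h at 37° C. from 10 uM final downward in 5-fold steps. DC50 comes from a logistic fit and Dmax is the maximal degradation.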

Row | Compound | DC50 [1] [nM] | Dmax [1] [%] | DC50 [2] [nM] | Dmax (%) H1975 # 28 DTC [2] [%] | Dmax (%) BaF3-LTC [1] [%]
1 | CCc1cc(Nc2ncc(Br)c(Nc3ccc4nc(C)ccc4c3P(C)(C)=O)n2)c(OC2CC2)cc1N1CCC(N2CCN(CC3CN(c4cccc5c4oc(=O)n5C4CCC(=O)NC4=O)C3)CC2)CC1 (centres unmarked) [Example 600, 3-(7-(3-((4-(1-(4-((5-bromo-4-((5-(dimethylphosphoryl)-2-methylquinolin-6-yl)amino)pyrimidin-2-yl)amino)-5-cyclopropoxy-2-ethylphenyl)piperidin-4-yl)piperazin-1-yl)methyl)azetidin-1-yl)-2-oxobenzo[d]oxazol-3(2H)-yl)piperidine-2,6-dione] | 4.11 | 87.4 | 1.18 | 83.32 | 
2 | CCc1cc(Nc2ncc(Br)c(Nc3ccc4nc(C)ccc4c3P(C)(C)=O)n2)c(OC)cc1N1CCC(N2CCN(C(=O)[C@@H]3CCN(c4cc(F)c([C@H]5CCC(=O)NC5=O)c(F)c4)C3)[C@H](CO)C2)CC1 [Example 675, (R)-3-(4-((R)-3-((S)-4-(1-(4-((5-bromo-4-((5-(dimethylphosphoryl)-2-methylquinolin-6-yl)amino)pyrimidin-2-yl)amino)-2-ethyl-5-methoxyphenyl)piperidin-4-yl)-2-(hydroxymethyl)piperazine-1-carbonyl)pyrrolidin-1-yl)-2,6-difluorophenyl)piperidine-2,6-dione] | 4.3 | 96.5 | 1.01 | 82.47 | 
3 | CCOc1cc(N2CCC(N3CCN(CCc4ccc(F)c5c4n(CC)c(=O)n5C4CCC(=O)NC4=O)CC3)CC2)c(CC)cc1Nc1ncc(Br)c(Nc2cc(F)c3nc(CC)ccc3c2P(C)(C)=O)n1 (centres unmarked) [Example 603, 3-(4-(2-(4-(1-(4-((5-bromo-4-((5-(dimethylphosphoryl)-2-ethyl-8-fluoroquinolin-6-yl)amino)pyrimidin-2-yl)amino)-5-ethoxy-2-ethylphenyl)piperidin-4-yl)piperazin-1-yl)ethyl)-3-ethyl-7-fluoro-2-oxo-2,3-dihydro-1H-benzo[d]imidazol-1-yl)piperidine-2,6-dione] | 7.62 | 91.2 | 1.57 | 81.2 | 
4 | CCOc1cc(N2CCC(N3CCN(CCc4c(F)cc5c(oc(=O)n5C5CCC(=O)NC5=O)c4C)CC3)CC2)c(CC)cc1Nc1ncc(Br)c(Nc2ccc3c(=O)n(CC)ncc3c2P(C)(C)=O)n1 (centres unmarked) [Example 613, 3-(6-(2-(4-(1-(4-((5-bromo-4-((5-(dimethylphosphoryl)-2-ethyl-1-oxo-1,2-dihydrophthalazin-6-yl)amino)pyrimidin-2-yl)amino)-5-ethoxy-2-ethylphenyl)piperidin-4-yl)piperazin-1-yl)ethyl)-5-fluoro-7-methyl-2-oxobenzo[d]oxazol-3(2H)-yl)piperidine-2,6-dione] | 17.3 | 88.6 | 3.55 | 71.47 | 
5 | CCc1ccc2c(P(C)(C)=O)c(Nc3nc(Nc4cc(CC)c(N5CCC(N6CCN(CCc7cc8oc(=O)n(C9CCC(=O)NC9=O)c8cc7F)CC6)CC5)cc4OC)ncc3Br)ccc2n1 (centres unmarked) [Example 457, 3-(6-(2-(4-(1-(4-((5-bromo-4-((5-(dimethylphosphoryl)-2-ethylquinolin-6-yl)amino)pyrimidin-2-yl)amino)-2-ethyl-5-methoxyphenyl)piperidin-4-yl)piperazin-1-yl)ethyl)-5-fluoro-2-oxobenzo[d]oxazol-3(2H)-yl)piperidine-2,6-dione] | 3.25 | 92.5 | 0.655 | 74.18 | 
6 | CCOc1cc(N2CCC(N3CCN(CCc4cc(F)c([C@H]5CCC(=O)NC5=O)c(F)c4)CC3)CC2)c(CC)cc1Nc1nccc(Nc2ccc3nc(CC)ncc3c2P(C)(C)=O)n1 [Example 749, (R)-3-(4-(2-(4-(1-(4-((4-((5-(dimethylphosphoryl)-2-ethylquinazolin-6-yl)amino)pyrimidin-2-yl)amino)-5-ethoxy-2-ethylphenyl)piperidin-4-yl)piperazin-1-yl)ethyl)-2,6-difluorophenyl)piperidine-2,6-dione] | 294 |  | 14.8 | 66.03 | 
7 | CCc1ccc2c(P(C)(C)=O)c(Nc3nc(Nc4cc(CC)c(N5CCC(N6CCN(CCc7cccc8c7n(CC)c(=O)n8C7CCC(=O)NC7=O)CC6)CC5)cc4OC)ncc3Br)ccc2n1 (centres unmarked) [Example 453, 3-(4-(2-(4-(1-(4-((5-bromo-4-((5-(dimethylphosphoryl)-2-ethylquinolin-6-yl)amino)pyrimidin-2-yl)amino)-2-ethyl-5-methoxyphenyl)piperidin-4-yl)piperazin-1-yl)ethyl)-3-ethyl-2-oxo-2,3-dihydro-TH-benzo[d]imidazol-1-yl)piperidine-2,6-dione] | 5.7 | 93.1 | 0.704 | 77.04 | 
8 | CCOc1cc(N2CCC(N3CCN(CCc4c(F)ccc5c4n(CC)c(=O)n5C4CCC(=O)NC4=O)CC3)CC2)c(CC)cc1Nc1ncc(Br)c(Nc2ccc3nc(CC)ccc3c2P(C)(C)=O)n1 (centres unmarked) [Example 558, 3-(4-(2-(4-(1-(4-((5-bromo-4-((5-(dimethylphosphoryl)-2-ethylquinolin-6-yl)amino)pyrimidin-2-yl)amino)-5-ethoxy-2-ethylphenyl)piperidin-4-yl)piperazin-1-yl)ethyl)-3-ethyl-5-fluoro-2-oxo-2,3-dihydro-1H-benzo[d]imidazol-1-yl)piperidine-2,6-dione] | 13.1 |  | 2.59 | 85.18 | 
9 | CCOc1cc(N2CCC(N3CCN(CCc4c(F)ccc5c4oc(=O)n5C4CCC(=O)NC4=O)CC3)CC2)c(CC)cc1Nc1ncc(Br)c(Nc2cc(F)c3nc(CC)ccc3c2P(C)(C)=O)n1 (centres unmarked) [Example 595, 3-(7-(2-(4-(1-(4-((5-bromo-4-((5-(dimethylphosphoryl)-2-ethyl-8-fluoroquinolin-6-yl)amino)pyrimidin-2-yl)amino)-5-ethoxy-2-ethylphenyl)piperidin-4-yl)piperazin-1-yl)ethyl)-6-fluoro-2-oxobenzo[d]oxazol-3(2H)-yl)piperidine-2,6-dione] | 16.1 | 82 | 1.02 | 72.7 | 
10 | CCc1cc(Nc2ncc(Br)c(Nc3ccc4nc(C)ccc4c3P(C)(C)=O)n2)c(OC)cc1N1CCC(N2CCN(CCC3CCN(c4cc(F)c(C5CCC(=O)NC5=O)c(F)c4)CC3)C(=O)C2)CC1 (centres unmarked) [Example 695, 3-(4-(4-(2-(4-(1-(4-((5-bromo-4-((5-(dimethylphosphoryl)-2-methylquinolin-6-yl)amino)pyrimidin-2-yl)amino)-2-ethyl-5-methoxyphenyl)piperidin-4-yl)-2-oxopiperazin-1-yl)ethyl)piperidin-1-yl)-2,6-difluorophenyl)piperidine-2,6-dione] | 12.7 | 93.5 | 3.06 | 68.81 | 
11 | CCOc1cc(N2CCC(N3CCN(C[C@H]4CCN(c5cccc6c5oc(=O)n6C5CCC(=O)NC5=O)C4)CC3)CC2)c(CC)cc1Nc1ncc(Br)c(Nc2ccc3c(=O)n(CC)ncc3c2P(C)(C)=O)n1 (stereo partly drawn) [Example 611, 3-(7-((R)-3-((4-(1-(4-((5-bromo-4-((5-(dimethylphosphoryl)-2-ethyl-1-oxo-1,2-dihydrophthalazin-6-yl)amino)pyrimidin-2-yl)amino)-5-ethoxy-2-ethylphenyl)piperidin-4-yl)piperazin-1-yl)methyl)pyrrolidin-1-yl)-2-oxobenzo[d]oxazol-3(2H)-yl)piperidine-2,6-dione] | 83.4 |  | 5.69 | 70.37 | 86.27
12 | CCc1cc(Nc2ncc(Br)c(Nc3ccc4nc(C)ccc4c3P(C)(C)=O)n2)c(OC)cc1N1CCC(N2CCN(C[C@H]3CCN(c4ccc5c(c4)oc(=O)n5C4CCC(=O)NC4=O)C3)CC2)CC1 (stereo partly drawn) [Example 525, 3-(6-((R)-3-((4-(1-(4-((5-bromo-4-((5-(dimethylphosphoryl)-2-methylquinolin-6-yl)amino)pyrimidin-2-yl)amino)-2-ethyl-5-methoxyphenyl)piperidin-4-yl)piperazin-1-yl)methyl)pyrrolidin-1-yl)-2-oxobenzo[d]oxazol-3(2H)-yl)piperidine-2,6-dione] | 2.6 | 94.3 | 0.691 | 50.86 | 
13 | CCOc1cc(N2CCC(N3CCN(CCc4c(F)ccc5c4n(CC)c(=O)n5C4CCC(=O)NC4=O)CC3)CC2)c(CC)cc1Nc1ncc(Br)c(Nc2ccc3c(=O)n(CC)ncc3c2P(C)(C)=O)n1 (centres unmarked) [Example 596, 3-(4-(2-(4-(1-(4-((5-bromo-4-((5-(dimethylphosphoryl)-2-ethyl-1-oxo-1,2-dihydrophthalazin-6-yl)amino)pyrimidin-2-yl)amino)-5-ethoxy-2-ethylphenyl)piperidin-4-yl)piperazin-1-yl)ethyl)-3-ethyl-5-fluoro-2-oxo-2,3-dihydro-1H-benzo[d]imidazol-1-yl)piperidine-2,6-dione] | 6.56 |  | 0.937 | 84.17 | 91.42
